From US20210127678A1, “ESTERS OF HETEROCYCLIC COMPOUNDS HAVING A NEMATOCIDAL ACTIVITY, THEIR AGRONOMIC COMPOSITIONS AND THEIR USE” (ISAGRO, S.P.A., priority 2018, published 2021)

What was measured:
[1] = test system: Meloidogyne sp.; assay: Determination of nematocidal activity against Meloidogyne sp. on potted cucumbers, cv Chinese Long; format: in vivo; conditions: 30 days after transplantation; for % INFESTED ROOT / ROOT DEVELOPMENT / ALL INDEX scale 0-10: 4,000 g/hectare; for ROOT DEVELOPMENT: 100% = healthy comparative root; for ALL INDEX scale 0-10: Bridge-Page infestation scale
Experimental: Determination of Nematocidal Activity Against Meloidogyne sp. The tests aimed at testing the nematocidal activity of the product under examination were carried out using inoculae taken from a farming of Meloidogyne sp. maintained on potted tomato and cucumber plants and grown in greenhouses. To carry out the experiments, portions of roots having a good number of galls and soil were taken from the infested pots, in which larvae were present starting from the second stage of age. New pots having a diameter of 15 cm were half filled with sterile soil. The portions of infested roots, previously cleaned up, were placed on the same in order to be able to correctly assess the degree of infestation and ensure that each pot contains the same nematic charge. 200-300 g of infested soil were subsequently added, then covered with a thin layer of sterile soil. The treatment was carried out by pouring 100 ml of solution on the surface of the soil, in which the product to be tested was dissolved. Tomato or cucumber seedlings at the stage of two or three true leaves were transplanted in the pots thus prepared, one or seven days after application. Different cultivars of tomato or cucumber were used, having a different sensitivity to the parasite and different growth times. In particular, a variety of ornamental tomatoes (cv Microtom) was used for assessing the final production, whose seedlings are small in size and are able to reach the ripeness of the fruit in pots and under greenhouse conditions in about two months The containment capacity of the parasite was detected, 30 and 60 days after transplantation, considering the development of the root system (where 100% is the development achieved by the healthy comparative root) and the presence of galls on the roots. This was estimated using the infestation scale proposed by Bridge-Page, according to which the value zero corresponds to 0% of the root affected and the value 10 corresponds to 100% of infested root. […] 2, 4, 12, 13, 17 and the Compound CR1, on cucumbers, cv Chinese Long, at a dose of 4,000 g/hectare, effecting the survey 30 days after transplantation. […] 2, 4, 8, 12, 13, 17, 127, 129 and the Compound CR1, on cucumbers, cv Chinese Long, at doses of 2,000 g/hectare, 1,000 g/hectare and 500 g/hectare effecting the survey 30 days after transplantation.

[2] = test system: cucumbers, cv Chinese Long; assay: Phytotoxicity on cucumbers, cv Chinese Long (soil treatment of potted plants); format: in vivo, cucumber; conditions: zero=no symptoms, 10=destroyed plant
Experimental: New pots having a diameter of 15 cm were half filled with sterile soil. The portions of infested roots, previously cleaned up, were placed on the same in order to be able to correctly assess the degree of infestation and ensure that each pot contains the same nematic charge. 200-300 g of infested soil were subsequently added, then covered with a thin layer of sterile soil. The treatment was carried out by pouring 100 ml of solution on the surface of the soil, in which the product to be tested was dissolved. Tomato or cucumber seedlings at the stage of two or three true leaves were transplanted in the pots thus prepared, one or seven days after application. Different cultivars of tomato or cucumber were used, having a different sensitivity to the parasite and different growth times. In particular, a variety of ornamental tomatoes (cv Microtom) was used for assessing the final production, whose seedlings are small in size and are able to reach the ripeness of the fruit in pots and under greenhouse conditions in about two months The product was evaluated considering the possible phytotoxic effects that may compromise the development of the plant (in this case a zero-ten scale was used, according to which zero=no symptoms, 10=destroyed plant) and the effectiveness against nematodes. […] 2, 4, 12, 13, 17 included in general formula (I) and CR1, described in JP 2000038379 instead of the compound having general formula (I).

Compound	GALL INDEX (scale 0-10) ([1]; dose applied 0.5 kg ai/ha)	WEIGHT OF FRESH PLANT ([1]; dose applied 0.5 kg ai/ha)	GALL INDEX (scale 0-10) ([1]; dose applied 1 kg ai/ha)	WEIGHT OF FRESH PLANT ([1]; dose applied 1 kg ai/ha)	GALL INDEX (scale 0-10) ([1]; dose applied 2 kg ai/ha)	WEIGHT OF FRESH PLANT ([1]; dose applied 2 kg ai/ha)	% INFESTED ROOT [1]	ROOT DEVELOPMENT [1]	ALL INDEX scale 0-10 [1]	Phytotoxicity (scale 0-10) [2]
O=C(OCCC(F)=C(F)F)c1csc(C(F)(F)F)n1 [Comp. Nr. 8]	2.5	25 g	2.3	27 g	1.2	37 g	–	–	–	–
O=C(OCCC(F)=C(F)F)c1cccnc1 [CR1, pyridyl-3-carboxylate of 3,4,4-trifluoro-3-butenyl, reference compound]	4.8	23 g	3.5	25 g	2.8	30 g	8%	70%	0.8	0
O=C(OCCC(F)=C(F)F)c1cncnc1 [Comp. Nr. 127]	3.4	26 g	2.1	29 g	0.9	36 g	–	–	–	–
Cc1cc(C(=O)OCCC(F)=C(F)F)no1 [Comp. Nr. 129]	3.6	25 g	2.4	26 g	0.9	35 g	–	–	–	–
O=C(OCCC(F)=C(F)F)c1cccnc1C(F)(F)F [Comp. Nr. 12]	3.1	27 g	2.9	28 g	2.1	31 g	0%	95%	0	0
Cn1cc(C(=O)OCCC(F)=C(F)F)c(C(F)F)n1 [Comp. Nr. 13]	2.1	36 g	1.2	38 g	1.2	39 g	0%	95%	0	0
Cc1nnc(C(=O)OCCC(F)=C(F)F)s1 [Comp. Nr. 4, 5-methyl-1,3,4-thiadiazole-2-carboxylate of 3,4,4-trifluoro-3-butenyl]	2.2	35 g	1.9	37 g	1.9	34 g	3%	90%	0.3	0
Cc1nc(C(F)F)c(C(=O)OCCC(F)=C(F)F)s1 [Comp. Nr. 2, 2-methyl-4-difluoromethyl-thiazole-5-carboxylate of 3,4,4-trifluoro-3-butenyl]	2.8	36 g	2.6	37 g	1.4	35 g	3%	90%	0.3	0
O=C(OCCC(F)=C(F)F)c1cn2cc(C(F)(F)F)cc(Cl)c2n1 [Comp. Nr. 17]	3.3	26 g	2.8	28 g	2.2	31 g	3%	85%	0.3	0
